Data from paper PMC12852734, “Design of precision therapeutics for a CKD risk allele by targeting Shroom3-Rock interaction” (Nature Communications, 2025).

How the values were obtained:
[1] = target: T1, ROCK1 (Homo sapiens, UniProt Q13464); assay: anti-V5 co-immunoprecipitation of SHROOM3-ROCK1 from treated WT-Sh3 HEK-293T cells; format: cell-based; parameters: with SHROOM3
Target sequence in this assay (Q13464 2-1354): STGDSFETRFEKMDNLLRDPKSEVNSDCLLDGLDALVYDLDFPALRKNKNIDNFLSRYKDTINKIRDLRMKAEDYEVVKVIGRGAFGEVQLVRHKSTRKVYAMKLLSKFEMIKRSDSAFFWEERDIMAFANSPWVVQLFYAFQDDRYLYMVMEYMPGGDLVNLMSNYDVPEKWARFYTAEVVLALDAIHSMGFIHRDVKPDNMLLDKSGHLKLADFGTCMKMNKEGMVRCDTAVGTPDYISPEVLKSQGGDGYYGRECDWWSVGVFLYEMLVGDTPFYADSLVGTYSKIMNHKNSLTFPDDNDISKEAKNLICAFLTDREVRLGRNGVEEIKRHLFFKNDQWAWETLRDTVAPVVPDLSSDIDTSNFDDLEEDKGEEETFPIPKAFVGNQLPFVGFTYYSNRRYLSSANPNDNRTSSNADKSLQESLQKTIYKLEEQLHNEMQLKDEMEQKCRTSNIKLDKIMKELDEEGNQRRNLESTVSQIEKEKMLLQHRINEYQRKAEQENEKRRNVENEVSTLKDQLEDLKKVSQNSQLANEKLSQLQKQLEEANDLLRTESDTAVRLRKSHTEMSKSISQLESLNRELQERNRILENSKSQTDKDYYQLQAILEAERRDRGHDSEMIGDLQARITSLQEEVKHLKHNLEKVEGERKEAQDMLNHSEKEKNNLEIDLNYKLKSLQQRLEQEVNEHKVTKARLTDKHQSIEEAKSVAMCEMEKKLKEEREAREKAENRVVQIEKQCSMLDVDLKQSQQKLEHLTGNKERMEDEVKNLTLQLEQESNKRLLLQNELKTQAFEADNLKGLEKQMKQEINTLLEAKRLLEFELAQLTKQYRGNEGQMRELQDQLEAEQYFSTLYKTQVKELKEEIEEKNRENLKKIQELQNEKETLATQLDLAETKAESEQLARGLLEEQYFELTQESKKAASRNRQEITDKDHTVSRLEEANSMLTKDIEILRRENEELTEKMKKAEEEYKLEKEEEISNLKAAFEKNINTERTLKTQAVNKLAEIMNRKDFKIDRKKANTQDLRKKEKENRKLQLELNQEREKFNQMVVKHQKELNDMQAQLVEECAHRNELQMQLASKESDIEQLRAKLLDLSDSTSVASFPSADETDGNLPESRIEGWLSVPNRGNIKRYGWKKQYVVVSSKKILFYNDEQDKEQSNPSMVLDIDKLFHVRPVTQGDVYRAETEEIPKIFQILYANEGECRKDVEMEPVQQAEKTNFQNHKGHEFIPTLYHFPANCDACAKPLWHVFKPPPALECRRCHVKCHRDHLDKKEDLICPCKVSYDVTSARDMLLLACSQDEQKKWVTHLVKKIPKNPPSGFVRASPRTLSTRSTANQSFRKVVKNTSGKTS
Target sequence in this assay (Q8TF72 whole entry partner): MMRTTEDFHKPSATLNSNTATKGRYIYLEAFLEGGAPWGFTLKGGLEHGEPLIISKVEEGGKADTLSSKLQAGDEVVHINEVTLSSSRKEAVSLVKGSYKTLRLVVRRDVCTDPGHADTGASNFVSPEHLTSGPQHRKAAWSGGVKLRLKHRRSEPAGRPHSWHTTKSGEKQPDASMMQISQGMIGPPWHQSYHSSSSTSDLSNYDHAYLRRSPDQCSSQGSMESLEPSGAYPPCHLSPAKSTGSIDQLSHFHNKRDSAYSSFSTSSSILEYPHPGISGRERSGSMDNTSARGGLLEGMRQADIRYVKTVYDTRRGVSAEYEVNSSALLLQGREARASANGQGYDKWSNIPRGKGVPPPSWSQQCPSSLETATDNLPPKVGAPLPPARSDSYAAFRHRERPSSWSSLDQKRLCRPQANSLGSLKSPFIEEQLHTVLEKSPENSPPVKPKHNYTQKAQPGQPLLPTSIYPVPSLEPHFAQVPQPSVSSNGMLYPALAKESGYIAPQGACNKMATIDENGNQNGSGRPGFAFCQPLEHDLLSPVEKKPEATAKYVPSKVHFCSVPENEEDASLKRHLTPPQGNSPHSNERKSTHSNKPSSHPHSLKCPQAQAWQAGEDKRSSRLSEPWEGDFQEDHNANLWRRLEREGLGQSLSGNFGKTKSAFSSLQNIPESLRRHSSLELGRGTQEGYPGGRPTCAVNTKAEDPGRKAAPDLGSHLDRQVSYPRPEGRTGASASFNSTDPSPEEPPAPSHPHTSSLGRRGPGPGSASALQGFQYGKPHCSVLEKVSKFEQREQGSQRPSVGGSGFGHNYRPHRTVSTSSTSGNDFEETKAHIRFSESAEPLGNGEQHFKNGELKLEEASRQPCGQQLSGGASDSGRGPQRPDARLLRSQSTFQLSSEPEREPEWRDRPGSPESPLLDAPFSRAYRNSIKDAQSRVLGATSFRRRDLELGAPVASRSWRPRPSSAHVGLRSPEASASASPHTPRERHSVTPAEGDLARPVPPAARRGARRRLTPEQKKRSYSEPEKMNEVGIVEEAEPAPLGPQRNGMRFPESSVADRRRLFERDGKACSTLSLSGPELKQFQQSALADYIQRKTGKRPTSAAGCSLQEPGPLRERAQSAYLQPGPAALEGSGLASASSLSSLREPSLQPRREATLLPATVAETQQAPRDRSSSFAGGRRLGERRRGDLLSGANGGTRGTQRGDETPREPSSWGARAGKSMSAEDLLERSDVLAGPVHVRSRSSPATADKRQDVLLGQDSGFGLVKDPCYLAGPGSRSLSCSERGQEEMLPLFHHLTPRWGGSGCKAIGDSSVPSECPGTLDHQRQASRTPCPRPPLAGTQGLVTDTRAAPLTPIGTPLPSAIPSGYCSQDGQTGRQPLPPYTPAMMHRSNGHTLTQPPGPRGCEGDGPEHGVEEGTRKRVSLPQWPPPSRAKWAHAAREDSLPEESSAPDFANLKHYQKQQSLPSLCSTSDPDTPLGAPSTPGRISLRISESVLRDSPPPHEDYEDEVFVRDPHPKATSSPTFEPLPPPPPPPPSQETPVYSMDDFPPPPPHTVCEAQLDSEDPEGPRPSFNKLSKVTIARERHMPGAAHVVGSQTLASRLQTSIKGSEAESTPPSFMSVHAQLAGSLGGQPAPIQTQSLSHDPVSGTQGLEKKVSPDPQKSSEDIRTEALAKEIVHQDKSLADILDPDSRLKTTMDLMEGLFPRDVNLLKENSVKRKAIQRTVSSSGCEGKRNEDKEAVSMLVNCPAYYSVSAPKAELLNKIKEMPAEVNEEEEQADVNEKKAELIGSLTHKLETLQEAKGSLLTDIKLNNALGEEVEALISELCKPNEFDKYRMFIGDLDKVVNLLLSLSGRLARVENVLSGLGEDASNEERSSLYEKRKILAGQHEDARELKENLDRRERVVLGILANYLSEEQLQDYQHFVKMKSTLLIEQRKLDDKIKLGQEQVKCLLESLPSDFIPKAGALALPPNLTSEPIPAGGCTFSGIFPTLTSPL

[2] = target: T1, ROCK1
Target sequence in this assay (Q13464 2-1354): as the sequence (Q13464 2-1354) above

| Compound | anti-V5 co-immunoprecipitation of SHROOM3-ROCK1 from treated WT-Sh3 HEK-293T cel [1] | kinase hot spot assay in the absence of SHROOM3 (Fig. S7j) [2] |
| --- | --- | --- |
| F[B-](F)(F)c1ccc(C2NC(=S)NC3=C2CCc2ccccc23)cc1 (centres unmarked) [D4G, potassium trifluoro (4-(2-thioxo-1,2,3,4,5,6-hexahydrobenzo [h]quinazolin-4-yl)phenyl) borate] | the interaction of SHROOM3 with ROCK1 was diminished with D4G-treatment vs DMSO-treatment in WT-Sh3 overexpressing HEK-293T | – |
| O=c1[nH]ccc2c(S(=O)(=O)N3CCCNCC3)cccc12 [HF, Hydroxy Fasudil] | – | HF inhibited Rock1, Rock2 (as expected), but showed significant off-target kinase inhibition (except Fyn) |
